Assay results as given in patent US8916599B2, “1H-benz imidazole-5-carboxamides as anti-inflammatory agents” (Orexo AB, priority 2008, dated 2014).

Molecular target: T1, recombinant human mPGES-1 (Homo sapiens, UniProt O14684)
T1 construct: made in house; host or cells: Rosetta E. coli (microsomal/membrane fraction)
T1 sequence (O14684 1-152): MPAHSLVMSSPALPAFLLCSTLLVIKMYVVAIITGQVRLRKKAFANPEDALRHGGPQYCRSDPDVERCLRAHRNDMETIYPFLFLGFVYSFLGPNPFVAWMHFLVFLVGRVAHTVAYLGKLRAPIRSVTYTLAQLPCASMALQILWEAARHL
Experiment: mPGES-1 inhibition test (microsomes, PGH2 substrate, HTRF detection of PGE2)
Format: biochemical
Conditions: for inhibition at 10 µM: inhibition of mPGES-1 at 10 μM; for inhibition at 1 µM: inhibition of mPGES-1 at 1 μM (marked in cell)
Summary of the method: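 Microsomes from E. coli expressing recombinant human mPGES-1 in 0.1 M KPi pH 7.4 with 2.5 mM GSH were preincubated with inhibitor 25 min at room temperature. PGH2 was then added, and the reaction was stopped after 1 min with acidified FeCl2. PGE2 was quantified by HTRF (665/620 nm ratio) against a synthetic PGE2 standard curve.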

| Compound | inhibition at 10 µM [%] | inhibition at 1 µM [%] |
| --- | --- | --- |
| CO[C@H]1CC[C@H](NC(=O)c2ccc3c(c2)nc(Nc2c(Cl)cccc2Cl)n3C)CC1 [Example 240, 2-(2,6-Dichloro-phenylamino)-1-methyl-1H-benzimidazole-5-carboxylic acid (trans-4-methoxy-cyclohexyl)-amide] | 80 | – |
| Cc1nc(NC(=O)c2ccc3[nH]c(Nc4c(Cl)cccc4Cl)nc3c2)ccc1Br [Example 76, 2-(2,6-Dichloro-phenylamino)-1H-benzimidazole-5-carboxylic acid (5-bromo-6-methyl-pyridin-2-yl)-amide] | 97 | – |
| CC(=O)NCCn1c(Nc2c(Cl)cccc2Cl)nc2cc(C(=O)Nc3cc(Cl)ccn3)ccc21 [Example 278, 2-(2,6-Dichloro-phenylamino)-1-(2-acetylamino-ethyl)-1H-benzimidazole-5-carboxylic acid (4-chloro-pyridin-2-yl)-amide] | 92 | – |
| COc1cc2c(cc1C(=O)NC1CCCCC1)nc(Nc1c(Cl)ccc(Cl)c1F)n2C [Example 619, 2-(3,6-Dichloro-2-fluoro-phenylamino)-6-methoxy-N-cyclohexyl-1-methyl-1H-benzimidazole-5-carboxamide] | 94 | – |
| Cn1c(Nc2c(F)cccc2F)nc2cc(C(=O)Nc3ccc(Br)cc3)ccc21 [Example 173, 2-(2,6-Difluoro-phenylamino)-1-methyl-1H-benzimidazole-5-carboxylic acid (4-bromo-phenyl)-amide] | 97 | – |
| O=C(NC1CCC2(CC1)CC2)c1ccc2[nH]c(Nc3c(F)cccc3Cl)nc2c1 [Example 488, 2-(2-Chloro-6-fluorophenylamino)-N-(spiro[2.5]octan-6-yl)-1H-benzimidazole-5-carboxamide] | 98 | – |
| O=C(NC1Cc2ccccc2C1)c1cc2nc(Nc3c(Cl)cccc3Cl)[nH]c2cc1F [Example 125, 2-(2,6-Dichloro-phenylamino)-6-fluoro-1H-benzimidazol-5-carboxylic acid indan-2-yl-amide] | 100 | – |
| Cn1c(Nc2c(Cl)cccc2Cl)nc2cc(C(=O)NCC3CCCOC3)ccc21 (stereo not drawn) [Example 251, 2-(2,6-Dichloro-phenylamino)-1-methyl-1H-benzimidazole-5-carboxylic acid (tetrahydro-pyran-3-ylmethyl)-amide] | 71 | – |
| CN(C)c1cccnc1CNC(=O)c1cc2nc(Nc3c(Cl)cccc3Cl)n(C)c2cc1F [Example 474, 2-(2,6-Dichlorophenylamino)-N-((3-dimethylamino-pyridin-2-yl)-methyl)-6-fluoro-1-methyl-1H-benzimidazole-5-carboxamide] | 100 | – |
| Cc1cc(Cl)cc(Cl)c1Nc1nc2cc(C(=O)Nc3ccc(Br)cc3)ccc2n1C [Example 402, N-(4-Bromophenyl)-2-(2,4-dichloro-6-methylphenylamino)-1-methyl-1H-benzimidazole-5-carboxamide] | 100 | – |
| O=C(Nc1ccc(F)c(Cl)c1)c1ccc2[nH]c(Nc3c(Cl)cccc3Cl)nc2c1 [Example 71, 2-(2,6-Dichloro-phenylamino)-1H-benzimidazole-5-carboxylic acid (3-chloro-4-fluoro-phenyl)-amide] | – | 95 |
| Cc1cc(C)nc(NC(=O)c2ccc3[nH]c(Nc4c(Cl)cccc4Cl)nc3c2)c1 [Example 117, 2-(2,6-Dichloro-phenylamino)-1H-benzimidazole-5-carboxylic acid (4,6-dimethyl-pyridin-2-yl)-amide] | 100 | – |
| COc1cc2[nH]c(Nc3c(Cl)ccc(Cl)c3F)nc2cc1C(=O)Nc1ccc(Br)cc1 [Example 602, 2-(3,6-Dichloro-2-fluoro-phenylamino)-6-methoxy-N-(4-bromophenyl)-1H-benzimidazole-5-carboxamide] | 100 | – |
| COc1cc2c(cc1C(=O)NC1CCC(C)(C)CC1)nc(Nc1c(F)c(F)cc(F)c1F)n2C [Example 652, 2-(2,3,5,6-tetrafluoro-phenylamino)-6-methoxy-N-(4,4-dimethy-cyclohex-1-yl)-1-methyl-1H-benzimidazole-5-carboxamide] | – | 94 |
| COc1cc2[nH]c(Nc3c(Cl)ccc(Cl)c3F)nc2cc1C(=O)N[C@H]1CC[C@H](C(F)(F)F)CC1 [Example 617, 2-(3,6-Dichloro-2-fluoro-phenylamino)-6-methoxy-N-(4-trans-trifluoromethyl-cyclohex-1-yl)-1H-benzimidazole-5-carboxamide] | 100 | – |
| COc1cc2[nH]c(Nc3c(Cl)cc(F)cc3Cl)nc2cc1C(=O)NCc1ncccc1C(F)(F)F [Example 580, 2-(2,6-Dichloro-4-fluoro-phenylamino)-6-methoxy-N-((3-trifluoromethyl-pyridin-2-yl)-methyl)-1H-benzimidazole-5-carboxamide] | 100 | – |
| Cn1c(Nc2c(Cl)cccc2Cl)nc2cc(C(=O)NC3CCCC(C)(C)C3)c(F)cc21 (stereo not drawn) [Example 355, 2-(2,6-Dichlorophenylamino)-N-(3,3-dimethylcyclohexyl)-6-fluoro-1-methyl-1H-benzimidazole-5-carboxamide] | 100 | – |

| Compound | inhibition at 10 µM [%] | inhibition at 1 µM [%] |
| --- | --- | --- |
| Cn1c(Nc2c(Cl)cccc2Cl)nc2cc(C(=O)NC3COc4ccccc4C3)c(F)cc21 (stereo not drawn) [Example 160, 2-(2,6-Dichloro-phenylamino)-6-fluoro-1-methyl-1H-benzimidazole-5-carboxylic acid chroman-3-ylamide] | 98 | – |
| Cn1c(Nc2c(F)cccc2C(F)(F)F)nc2cc(C(=O)Nc3ccc(Br)cc3)ccc21 [Example 358, N-(4-Bromophenyl)-2-(2-fluoro-6-trifluoromethyl-phenylamino)-1-methyl-1H-benzimidazole-5-carboxamide] | 100 | – |
| O=C(Nc1ccc(Br)cc1)c1cc2nc(Nc3c(Cl)cc(F)cc3Cl)[nH]c2cc1OCC(F)F [Example 586, 2-(2,6-Dichloro-4-fluoro-phenylamino)-N-(4-bromo-phenyl)-6-(2,2-difluoroethoxy)-1H-benzimidazole-5-carboxamide] | 100 | – |
| CC(C)Oc1cc2[nH]c(Nc3c(Cl)ccc(Cl)c3F)nc2cc1C(=O)NC1CCCCC1 [Example 611, 2-(3,6-Dichloro-2-fluoro-phenylamino)-6-isopropoxy-N-cyclohexyl-1H-benzimidazole-5-carboxamide] | 90 | – |
| CCOc1cc2[nH]c(Nc3c(Cl)ccc(Cl)c3F)nc2cc1C(=O)NC1CCC2(CC1)CC2 [Example 646, 2-(3,6-Dichloro-2-fluoro-phenylamino)-6-ethoxy-N-(spiro[2.5]oct-6-yl)-1H-benzimidazole-5-carboxamide] | – | 99 |
| CN(C)CCCn1c(Nc2c(Cl)cccc2Cl)nc2cc(C(=O)Nc3cc(Cl)ccn3)ccc21 [Example 276, 2-(2,6-Dichloro-phenylamino)-1-(3-dimethylamino-propyl)-1H-benzimidazole-5-carboxylic acid (4-chloro-pyridin-2-yl)-amide] | 100 | – |
| Cc1cc2[nH]c(Nc3c(Cl)cccc3Cl)nc2cc1C(=O)NC1CCC(C)(C)CC1 [Example 123, 2-(2,6-Dichloro-phenylamino)-6-methyl-1H-benzimidazol-5-carboxylic acid (4,4-dimethyl-cyclohexyl)-amide] | 95 | – |
| COc1ccnc(NC(=O)c2ccc3[nH]c(Nc4c(Cl)cccc4Cl)nc3c2)c1 [Example 188, 2-(2,6-Dichloro-phenylamino)-1H-benzimidazole-5-carboxylic acid (4-methoxy-pyridin-2-yl)-amide] | 96 | – |
| O=C(Nc1cccc(C(F)(F)F)n1)c1ccc2[nH]c(Nc3c(Cl)cccc3Cl)nc2c1 [Example 305, 2-(2,6-Dichloro-phenylamino)-1H-benzimidazole-5-carboxylic acid (6-trifluoromethyl-pyridin-2-yl)-amide] | 100 | – |
| COc1cc2c(cc1C(=O)NCc1ccccc1C(F)(F)F)nc(Nc1c(Cl)cccc1Cl)n2C [Example 136, 2-(2,6-Dichloro-phenylamino)-6-methoxy-1-methyl-1H-benzimidazole-5-carboxylic acid 2-trifluoromethyl-benzylamide] | 98 | – |
| O=C(Nc1cc(Cl)ccn1)c1ccc2c(c1)nc(Nc1c(Cl)cccc1Cl)n2CCN1CCCC1=O [Example 267, 2-(2,6-Dichloro-phenylamino)-1-[2-(2-oxo-pyrrolidin-1-yl)-ethyl]-1H-benzimidazole-5-carboxylic acid (4-chloro-pyridin-2-yl)-amide] | 94 | – |
| O=C(Nc1ccc(I)cc1)c1cc2nc(Nc3c(Cl)cccc3Cl)[nH]c2cc1Cl [Example 57, 2-(2,6-Dichloro-phenylamino)-6-chloro-1H-benzimidazol-5-carboxylic acid (4-iodo-phenyl)-amide] | 96 | – |
| O=C(Nc1ccc(Cl)cn1)c1ccc2[nH]c(Nc3c(Cl)cccc3Cl)nc2c1 [Example 74, 2-(2,6-Dichloro-phenylamino)-1H-benzimidazole-5-carboxylic acid (5-chloro-pyridin-2-yl)-amide] | 97 | – |
| Cn1c(Nc2ccccc2OC(F)(F)F)nc2cc(C(=O)Nc3ccc(Br)cc3)ccc21 [Example 320, 1-Methyl-2-(2-trifluoromethoxy-phenylamino)-1H-benzimidazole-5-carboxylic acid (4-bromo-phenyl)-amide] | 100 | – |
| Cn1c(Nc2c(Cl)cccc2Cl)nc2cc(C(=O)NCCc3ccncc3)ccc21 [Example 260, 2-(2,6-Dichloro-phenylamino)-1-methyl-1H-benzimidazole-5-carboxylic acid (2-pyridin-4-yl-ethyl)-amide] | 84 | – |
| Cn1c(Nc2c(Cl)cccc2Cl)nc2cc(C(=O)NC3CCC4(CC4)C3)ccc21 (stereo not drawn) [Example 436, 2-(2,6-Dichlorophenylamino)-1-methyl-N-(spiro[2.4]heptan-5-yl)-1H-benzimidazole-5-carboxamide] | 99 | – |
